ChEMBL document CHEMBL5058645, “Data for DCP probe JNJ-6204” (2022)

Legend:
[1] = biological target: Muscle, skeletal receptor tyrosine-protein kinase (Homo sapiens) (UniProt O15146); test: MuSK(h) Kinase panel; details: Compound concentration 1.0 uM, tested as the 2H-labelled form
[2] = biological target: Kappa-type opioid receptor (Homo sapiens) (UniProt P41145); details: Compound concentration 10.0 uM, tested as the 2H-labelled form
[3] = biological target: Serine/threonine-protein kinase Chk1 (Homo sapiens) (UniProt O14757); test: CHK1(h) Kinase panel; details: Compound concentration 1.0 uM, tested as the 2H-labelled form
[4] = biological target: Tyrosine-protein kinase FRK (Homo sapiens) (UniProt P42685); test: PTK5(h) Kinase panel; details: Compound concentration 1.0 uM, tested as the 2H-labelled form
[5] = biological target: Serine/threonine-protein kinase WNK3 (Homo sapiens) (UniProt Q9BYP7); test: WNK3(h) Kinase panel; details: Compound concentration 1.0 uM, tested as the 2H-labelled form
[6] = biological target: Serine/threonine-protein kinase TBK1 (Homo sapiens) (UniProt Q9UHD2); test: TBK1(h) Kinase panel; details: Compound concentration 1.0 uM, tested as the 2H-labelled form
[7] = biological target: Ribosomal protein S6 kinase alpha-4 (Homo sapiens) (UniProt O75676); test: MSK2(h) Kinase panel; details: Compound concentration 1.0 uM, tested as the 2H-labelled form
[8] = biological target: Death-associated protein kinase 3 (Homo sapiens) (UniProt O43293); test: ZIPK(h) Kinase panel; details: Compound concentration 1.0 uM, tested as the 2H-labelled form
[9] = biological target: Calcium/calmodulin-dependent protein kinase kinase 1 (Homo sapiens) (UniProt Q8N5S9); test: CaMKK1(h) Kinase panel; details: Compound concentration 1.0 uM, tested as the 2H-labelled form
[10] = biological target: Cell division cycle 7-related protein kinase (Homo sapiens) (UniProt O00311); test: Cdc7/cyclinB1(h) Kinase panel; details: Compound concentration 1.0 uM, tested as the 2H-labelled form
[11] = biological target: Ribosomal protein S6 kinase alpha-6 (Homo sapiens) (UniProt Q9UK32); test: Rsk4(h) Kinase panel; details: Compound concentration 1.0 uM, tested as the 2H-labelled form
[12] = biological target: Dual specificity tyrosine-phosphorylation-regulated kinase 1B (Homo sapiens) (UniProt Q9Y463); test: DYRK1B(h) Kinase panel; details: Compound concentration 1.0 uM, tested as the 2H-labelled form
[13] = biological target: Mitogen-activated protein kinase 1 (Homo sapiens) (UniProt P28482); test: MAPK1(h) Kinase panel; details: Compound concentration 1.0 uM, tested as the 2H-labelled form
[14] = biological target: MAPK/MAK/MRK overlapping kinase (Homo sapiens) (UniProt Q9UQ07); test: MOK(h) Kinase panel; details: Compound concentration 1.0 uM, tested as the 2H-labelled form
[15] = biological target: 5-hydroxytryptamine receptor 5A (Homo sapiens) (UniProt P47898); details: Compound concentration 10.0 uM, tested as the 2H-labelled form
[16] = biological target: Testis-specific serine/threonine-protein kinase 2 (Homo sapiens) (UniProt Q96PF2); test: TSSK2(h) Kinase panel; details: Compound concentration 1.0 uM, tested as the 2H-labelled form
[17] = biological target: Platelet-derived growth factor receptor beta (Homo sapiens) (UniProt P09619); test: PDGFRbeta(h) Kinase panel; details: Compound concentration 1.0 uM, tested as the 2H-labelled form
[18] = biological target: RAC-gamma serine/threonine-protein kinase (Homo sapiens) (UniProt Q9Y243); test: PKBgamma (h) Kinase panel; details: Compound concentration 1.0 uM, tested as the 2H-labelled form
[19] = biological target: Hepatocyte growth factor receptor (Homo sapiens) (UniProt P08581); test: Met(h) Kinase panel; details: Compound concentration 1.0 uM, tested as the 2H-labelled form
[20] = biological target: Serine/threonine-protein kinase WNK2 (Homo sapiens) (UniProt Q9Y3S1); test: WNK2(h) Kinase panel; details: Compound concentration 1.0 uM, tested as the 2H-labelled form
[21] = biological target: Cyclin-dependent kinase 1 (Homo sapiens) (UniProt P06493); test: CDK1/cyclinB(h) Kinase panel; details: Compound concentration 1.0 uM, tested as the 2H-labelled form
[22] = biological target: Phosphatidylinositol 4,5-bisphosphate 3-kinase catalytic subunit delta isoform (Homo sapiens) (UniProt O00329); test: PI3 Kinase (p110d/p85a)(h) Kinase panel; details: Compound concentration 1.0 uM, tested as the 2H-labelled form
[23] = biological target: Serine/threonine-protein kinase Nek1 (Homo sapiens) (UniProt Q96PY6); test: NEK1(h) Kinase panel; details: Compound concentration 1.0 uM, tested as the 2H-labelled form
[24] = biological target: Tyrosine-protein kinase Mer (Homo sapiens) (UniProt Q12866); test: Mer(h) Kinase panel; details: Compound concentration 1.0 uM, tested as the 2H-labelled form
[25] = biological target: Cyclin-dependent kinase 6 (Homo sapiens) (UniProt Q00534); test: CDK6/cyclinD3(h) Kinase panel; details: Compound concentration 1.0 uM, tested as the 2H-labelled form
[26] = biological target: Mitogen-activated protein kinase kinase kinase 5 (Homo sapiens) (UniProt Q99683); test: ASK1(h) Kinase panel; details: Compound concentration 1.0 uM, tested as the 2H-labelled form
[27] = biological target: Aurora kinase B (Homo sapiens) (UniProt Q96GD4); test: Aurora-B(h) Kinase panel; details: Compound concentration 1.0 uM, tested as the 2H-labelled form
[28] = biological target: Tyrosine-protein kinase receptor UFO (Homo sapiens) (UniProt P30530); test: Axl(h) Kinase panel; details: Compound concentration 1.0 uM, tested as the 2H-labelled form
[29] = biological target: Bone morphogenetic protein receptor type-2 (Homo sapiens) (UniProt Q13873); test: BMPR2(h) Kinase panel; details: Compound concentration 1.0 uM, tested as the 2H-labelled form
[30] = biological target: Non-receptor tyrosine-protein kinase TYK2 (Homo sapiens) (UniProt P29597); test: TYK2(h) Kinase panel; details: Compound concentration 1.0 uM, tested as the 2H-labelled form
[31] = biological target: TRAF2 and NCK-interacting protein kinase (Homo sapiens, UniProt Q9UKE5); test: TNIK(h) Kinase panel; details: Compound concentration 1.0 uM, tested as the 2H-labelled form
[32] = biological target: Serine/threonine-protein kinase SIK3 (Homo sapiens) (UniProt Q9Y2K2); test: SIK3(h) Kinase panel; details: Compound concentration 1.0 uM, tested as the 2H-labelled form
[33] = biological target: Serine/threonine-protein kinase haspin (Homo sapiens) (UniProt Q8TF76); test: Haspin(h) Kinase panel; details: Compound concentration 1.0 uM, tested as the 2H-labelled form
[34] = biological target: Tyrosine-protein kinase Srms (Homo sapiens) (UniProt Q9H3Y6); test: SRMS(h) Kinase panel; details: Compound concentration 1.0 uM, tested as the 2H-labelled form
[35] = biological target: Ephrin type-A receptor 4 (Homo sapiens) (UniProt P54764); test: EphA4(h) Kinase panel; details: Compound concentration 1.0 uM, tested as the 2H-labelled form
[36] = biological target: Protein-tyrosine kinase 6 (Homo sapiens) (UniProt Q13882); test: BRK(h) Kinase panel; details: Compound concentration 1.0 uM, tested as the 2H-labelled form
[37] = biological target: 5-hydroxytryptamine receptor 1E (Homo sapiens) (UniProt P28566); details: Compound concentration 10.0 uM, tested as the 2H-labelled form
[38] = biological target: Tyrosine-protein kinase CSK (Homo sapiens) (UniProt P41240); test: CSK(h) Kinase panel; details: Compound concentration 1.0 uM, tested as the 2H-labelled form
[39] = biological target: Aurora kinase C (Homo sapiens) (UniProt Q9UQB9); test: Aurora-C(h) Kinase panel; details: Compound concentration 1.0 uM, tested as the 2H-labelled form
[40] = biological target: Ribosomal protein S6 kinase alpha-3 (Homo sapiens) (UniProt P51812); test: Rsk2(h) Kinase panel; details: Compound concentration 1.0 uM, tested as the 2H-labelled form
[41] = biological target: Cyclin-dependent kinase-like 2 (Homo sapiens) (UniProt Q92772); test: CDKL2(h) Kinase panel; details: Compound concentration 1.0 uM, tested as the 2H-labelled form
[42] = biological target: Serine/threonine-protein kinase PLK1 (Homo sapiens) (UniProt P53350); test: Plk1(h) Kinase panel; details: Compound concentration 1.0 uM, tested as the 2H-labelled form
[43] = biological target: Tyrosine-protein kinase Tec (Homo sapiens) (UniProt P42680); test: Tec(h) activated Kinase panel; details: Compound concentration 1.0 uM, tested as the 2H-labelled form
[44] = biological target: 5-hydroxytryptamine receptor 1B (Homo sapiens) (UniProt P28222); details: Compound concentration 10.0 uM, tested as the 2H-labelled form
[45] = biological target: Serine/threonine-protein kinase VRK2 (Homo sapiens) (UniProt Q86Y07); test: VRK2(h) Kinase panel; details: Compound concentration 1.0 uM, tested as the 2H-labelled form
[46] = biological target: Serine/threonine-protein kinase ULK1 (Homo sapiens) (UniProt O75385); test: ULK1(h) Kinase panel; details: Compound concentration 1.0 uM, tested as the 2H-labelled form
[47] = biological target: LIM domain kinase 2 (Homo sapiens) (UniProt P53671); test: LIMK2(h) Kinase panel; details: Compound concentration 1.0 uM, tested as the 2H-labelled form

Muscle, skeletal receptor tyrosine-protein kinase (Homo sapiens), sequence (O15146 whole entry): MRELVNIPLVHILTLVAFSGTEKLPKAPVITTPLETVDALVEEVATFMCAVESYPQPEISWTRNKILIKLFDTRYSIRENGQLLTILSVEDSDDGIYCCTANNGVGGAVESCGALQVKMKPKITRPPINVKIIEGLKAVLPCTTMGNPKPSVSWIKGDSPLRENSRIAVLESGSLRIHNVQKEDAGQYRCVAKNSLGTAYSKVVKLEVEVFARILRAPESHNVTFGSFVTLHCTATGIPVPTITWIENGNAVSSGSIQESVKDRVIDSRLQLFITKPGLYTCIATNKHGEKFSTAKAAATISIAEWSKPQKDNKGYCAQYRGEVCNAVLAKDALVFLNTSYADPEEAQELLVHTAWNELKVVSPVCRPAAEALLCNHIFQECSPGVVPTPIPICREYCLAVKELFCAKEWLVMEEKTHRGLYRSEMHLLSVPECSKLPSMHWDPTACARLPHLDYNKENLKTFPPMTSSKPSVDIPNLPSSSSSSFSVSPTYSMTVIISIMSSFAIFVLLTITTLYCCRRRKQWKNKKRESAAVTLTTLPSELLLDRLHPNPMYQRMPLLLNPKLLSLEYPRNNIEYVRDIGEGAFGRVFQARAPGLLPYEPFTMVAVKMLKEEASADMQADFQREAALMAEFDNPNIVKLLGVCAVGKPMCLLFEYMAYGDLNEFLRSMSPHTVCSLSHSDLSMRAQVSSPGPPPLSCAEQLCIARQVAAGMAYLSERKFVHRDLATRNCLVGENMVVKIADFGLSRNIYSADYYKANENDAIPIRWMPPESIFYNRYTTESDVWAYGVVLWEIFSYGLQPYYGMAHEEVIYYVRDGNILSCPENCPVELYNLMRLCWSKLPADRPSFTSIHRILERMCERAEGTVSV
Serine/threonine-protein kinase VRK2 (Homo sapiens), sequence (Q86Y07 whole entry): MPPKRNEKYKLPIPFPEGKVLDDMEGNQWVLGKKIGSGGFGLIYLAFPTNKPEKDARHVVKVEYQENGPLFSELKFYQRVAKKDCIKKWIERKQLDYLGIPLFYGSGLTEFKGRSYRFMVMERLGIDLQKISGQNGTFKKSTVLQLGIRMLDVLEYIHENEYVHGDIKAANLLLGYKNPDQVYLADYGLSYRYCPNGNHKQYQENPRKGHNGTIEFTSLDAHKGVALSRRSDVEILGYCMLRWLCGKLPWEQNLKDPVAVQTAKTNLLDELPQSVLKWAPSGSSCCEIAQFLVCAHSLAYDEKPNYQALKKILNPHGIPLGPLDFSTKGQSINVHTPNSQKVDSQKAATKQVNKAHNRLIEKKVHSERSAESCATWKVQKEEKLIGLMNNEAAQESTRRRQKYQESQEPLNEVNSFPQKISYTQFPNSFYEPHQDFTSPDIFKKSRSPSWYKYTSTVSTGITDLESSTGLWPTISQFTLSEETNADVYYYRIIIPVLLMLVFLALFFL
Aurora kinase B (Homo sapiens), sequence (Q96GD4 whole entry): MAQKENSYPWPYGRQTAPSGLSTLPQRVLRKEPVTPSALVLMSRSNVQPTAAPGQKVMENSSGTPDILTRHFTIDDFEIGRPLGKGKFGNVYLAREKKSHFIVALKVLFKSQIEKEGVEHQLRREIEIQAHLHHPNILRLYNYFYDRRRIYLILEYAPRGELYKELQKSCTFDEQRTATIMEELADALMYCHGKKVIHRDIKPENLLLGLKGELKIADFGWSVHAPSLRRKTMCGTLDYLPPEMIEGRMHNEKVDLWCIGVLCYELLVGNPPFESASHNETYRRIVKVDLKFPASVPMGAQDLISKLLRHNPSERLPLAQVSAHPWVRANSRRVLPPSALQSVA
MAPK/MAK/MRK overlapping kinase (Homo sapiens), sequence (Q9UQ07 whole entry): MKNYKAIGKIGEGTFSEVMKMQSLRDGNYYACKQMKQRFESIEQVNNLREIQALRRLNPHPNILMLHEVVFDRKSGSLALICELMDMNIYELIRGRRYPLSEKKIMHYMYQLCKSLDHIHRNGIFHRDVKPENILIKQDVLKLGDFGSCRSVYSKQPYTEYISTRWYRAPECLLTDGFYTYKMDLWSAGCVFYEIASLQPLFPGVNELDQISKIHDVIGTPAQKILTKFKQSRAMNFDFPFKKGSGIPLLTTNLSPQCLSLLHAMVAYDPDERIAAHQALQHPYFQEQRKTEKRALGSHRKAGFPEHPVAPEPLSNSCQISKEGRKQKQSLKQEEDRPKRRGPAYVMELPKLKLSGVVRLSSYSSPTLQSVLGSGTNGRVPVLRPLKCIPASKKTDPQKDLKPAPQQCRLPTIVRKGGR
Non-receptor tyrosine-protein kinase TYK2 (Homo sapiens), sequence (P29597 whole entry): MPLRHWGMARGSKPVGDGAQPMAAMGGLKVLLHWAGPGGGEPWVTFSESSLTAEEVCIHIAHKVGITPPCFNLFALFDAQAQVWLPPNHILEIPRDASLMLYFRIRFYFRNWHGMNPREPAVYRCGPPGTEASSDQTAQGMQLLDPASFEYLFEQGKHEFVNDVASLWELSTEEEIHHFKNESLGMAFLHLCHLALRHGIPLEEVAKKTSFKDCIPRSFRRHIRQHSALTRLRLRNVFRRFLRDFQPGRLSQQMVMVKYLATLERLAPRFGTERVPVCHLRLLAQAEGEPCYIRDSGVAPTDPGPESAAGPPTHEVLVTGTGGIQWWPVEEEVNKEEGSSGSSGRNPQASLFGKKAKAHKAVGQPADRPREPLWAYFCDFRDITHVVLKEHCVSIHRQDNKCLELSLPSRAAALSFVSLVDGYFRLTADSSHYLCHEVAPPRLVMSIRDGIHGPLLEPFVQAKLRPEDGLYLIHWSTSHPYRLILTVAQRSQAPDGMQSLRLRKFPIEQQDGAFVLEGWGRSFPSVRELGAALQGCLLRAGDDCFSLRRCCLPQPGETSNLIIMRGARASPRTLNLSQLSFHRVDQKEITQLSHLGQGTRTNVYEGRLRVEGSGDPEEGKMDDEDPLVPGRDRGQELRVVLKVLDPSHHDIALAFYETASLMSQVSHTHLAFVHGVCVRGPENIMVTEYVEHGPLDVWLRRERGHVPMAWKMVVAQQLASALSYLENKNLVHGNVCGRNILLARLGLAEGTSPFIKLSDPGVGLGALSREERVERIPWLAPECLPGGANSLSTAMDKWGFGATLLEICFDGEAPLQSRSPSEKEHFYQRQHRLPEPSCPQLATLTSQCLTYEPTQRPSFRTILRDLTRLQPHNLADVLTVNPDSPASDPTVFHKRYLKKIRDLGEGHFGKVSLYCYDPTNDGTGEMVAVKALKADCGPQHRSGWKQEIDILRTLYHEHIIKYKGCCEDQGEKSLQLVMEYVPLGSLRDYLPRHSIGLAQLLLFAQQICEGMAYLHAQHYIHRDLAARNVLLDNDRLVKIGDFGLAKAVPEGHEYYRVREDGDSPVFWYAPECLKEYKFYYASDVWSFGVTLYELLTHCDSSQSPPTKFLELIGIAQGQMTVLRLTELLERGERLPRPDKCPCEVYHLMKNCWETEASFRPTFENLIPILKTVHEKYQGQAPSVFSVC
Protein-tyrosine kinase 6 (Homo sapiens), sequence (Q13882 whole entry, looked up): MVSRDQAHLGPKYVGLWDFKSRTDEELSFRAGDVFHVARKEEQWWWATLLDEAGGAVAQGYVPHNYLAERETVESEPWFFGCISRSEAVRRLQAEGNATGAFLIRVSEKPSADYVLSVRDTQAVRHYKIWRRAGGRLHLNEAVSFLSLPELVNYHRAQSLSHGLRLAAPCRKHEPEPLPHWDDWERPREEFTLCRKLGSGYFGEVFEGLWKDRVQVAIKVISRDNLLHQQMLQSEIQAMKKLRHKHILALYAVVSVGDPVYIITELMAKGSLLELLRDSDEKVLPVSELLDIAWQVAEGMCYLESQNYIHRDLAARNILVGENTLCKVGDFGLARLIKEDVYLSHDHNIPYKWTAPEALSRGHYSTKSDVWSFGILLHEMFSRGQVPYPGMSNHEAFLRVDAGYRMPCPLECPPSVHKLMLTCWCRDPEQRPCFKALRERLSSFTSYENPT
5-hydroxytryptamine receptor 1B (Homo sapiens), sequence (P28222 whole entry): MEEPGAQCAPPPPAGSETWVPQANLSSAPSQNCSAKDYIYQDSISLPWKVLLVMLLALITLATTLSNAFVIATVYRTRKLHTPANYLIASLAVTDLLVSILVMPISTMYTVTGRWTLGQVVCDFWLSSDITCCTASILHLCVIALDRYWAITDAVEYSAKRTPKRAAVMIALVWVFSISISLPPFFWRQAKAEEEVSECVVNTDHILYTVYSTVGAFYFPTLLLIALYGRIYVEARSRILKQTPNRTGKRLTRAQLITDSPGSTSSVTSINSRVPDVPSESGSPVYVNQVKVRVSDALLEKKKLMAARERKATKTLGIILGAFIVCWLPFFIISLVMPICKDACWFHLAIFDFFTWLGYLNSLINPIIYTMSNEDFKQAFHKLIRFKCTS
Mitogen-activated protein kinase 1 (Homo sapiens), sequence (P28482 whole entry): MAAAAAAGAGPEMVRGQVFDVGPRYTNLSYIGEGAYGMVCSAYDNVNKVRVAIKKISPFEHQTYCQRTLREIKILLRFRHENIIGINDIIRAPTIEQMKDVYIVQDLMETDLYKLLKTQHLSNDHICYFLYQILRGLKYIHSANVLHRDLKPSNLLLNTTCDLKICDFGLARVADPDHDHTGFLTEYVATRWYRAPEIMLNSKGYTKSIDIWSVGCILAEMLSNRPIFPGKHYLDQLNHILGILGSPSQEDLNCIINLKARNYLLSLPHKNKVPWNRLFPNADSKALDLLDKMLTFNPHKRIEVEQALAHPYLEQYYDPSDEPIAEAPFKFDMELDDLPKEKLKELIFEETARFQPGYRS
5-hydroxytryptamine receptor 5A (Homo sapiens), sequence (P47898 whole entry): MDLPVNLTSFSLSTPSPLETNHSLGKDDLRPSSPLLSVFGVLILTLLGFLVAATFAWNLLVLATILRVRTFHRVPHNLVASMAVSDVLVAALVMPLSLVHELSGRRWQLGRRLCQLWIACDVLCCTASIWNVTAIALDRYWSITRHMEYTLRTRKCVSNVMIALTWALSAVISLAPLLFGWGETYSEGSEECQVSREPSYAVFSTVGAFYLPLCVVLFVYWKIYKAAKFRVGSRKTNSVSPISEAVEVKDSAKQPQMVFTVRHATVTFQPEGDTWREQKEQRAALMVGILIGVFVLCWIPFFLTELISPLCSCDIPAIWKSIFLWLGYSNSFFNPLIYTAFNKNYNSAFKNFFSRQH

- inhibition [1]: -7%
- inhibition [2]: 12%
- inhibition [3]: -6%
- inhibition [4]: 11%
- inhibition [5]: -2%
- inhibition [6]: 24%
- inhibition [7]: -1%
- inhibition [9]: 2%
- inhibition [10]: 10%
- inhibition [11]: 23%
- inhibition [12]: -10%
- inhibition [13]: 20%
- inhibition [14]: -9%
- inhibition [15]: 3.27%
- inhibition [16]: 11%
- inhibition [17]: -9%
- inhibition [18]: 18%
- inhibition [19]: 8%
- inhibition [20]: 8%
- inhibition [21]: -8%
- inhibition [22]: 2%
- inhibition [23]: 5%
- inhibition [24]: 6%
- inhibition [25]: -7%
- inhibition [26]: 12%
- inhibition [27]: -10%
- inhibition [28]: 16%
- inhibition [29]: -7%
- inhibition [30]: -5%
- inhibition [31]: 50%
- inhibition [32]: -1%
- inhibition [33]: 9%
- inhibition [34]: 6%
- inhibition [35]: 0%
- inhibition [36]: -1%
- inhibition [37]: 2.51%
- inhibition [38]: -3%
- inhibition [39]: 7%
- inhibition [40]: 20%
- inhibition [41]: 0%
- inhibition [42]: 15%
- inhibition [43]: 29%
- inhibition [44]: 12.4%
- inhibition [45]: 8%
- inhibition [46]: 9%
- inhibition [47]: -3%
SMILES: CC1(C)Cn2nc(-c3ccc(F)cn3)c(-c3ccnc4[nH]ncc34)c2CO1
- inhibition [8]: 13%
